{
  "source": "patent US20220213049A1",
  "about": "“S[…]-4-ONE FOR THE TREATMENT AND PROPHYLAXIS OF HEPATITIS B VIRUS INFECTION” (priority 2019, published 2022)",
  "data": [
    {"tested_on": "HBeAg (surrogate marker for cccDNA) in HepDES19 cells", "assay": "Engineered HepDES19 primary screen assay (HBeAg ELISA)", "type": "cell-based, HBV", "conditions": "Hepatitis B virus, HepDES19, 120 h, read-out: IC50 (HBeAg level, HepDES19 primary screen assay)", "description": "The assay was employed to screen for novel cccDNA inhibitors. HepDES19 is a cccDNA-producing cell line. In this cell line, HBeAg in the cell culture supernatant as surrogate marker, as HBeAg production depends on cccDNA level and activity. HepDES19 is an engineered cell line which contains a 1.1 unit length HBV genome, and pgRNA transcription from the transgene is controlled by Tetracycline (Tet). In the absence of Tet, pgRNA transcription will be induced, but HBV e antigen (HBeAg) could not be produced from this pgRNA due to very short leader sequence before the HBeAg start codon and the start codon is disrupted. Only after cccDNA is formed, the missing leader sequence and start codon mutation would be restored from the 3′-terminal redundancy of pgRNA, and then HBeAg could be synthesized. Therefore, HBeAg could be used as a surrogate marker for cccDNA (Zhou, T. et al., Antiviral Res. (2006), 72(2), 116-124; Guo, H. et al., J. Virol. (2007), 81(22), 12472-12484).\nHepDES19 cells were seeded at 2×10^6 cells per T150 flask and cultured with the culture medium (Dulbecco's Modified Eagle Medium: Nutrient Mixture F-12 [DMEM-F12, Gibco Cat. 11320-82], 10% Fetal Bovine Serum [FBS, Clontech Cat. 631101], 0.1 mM Non-Essential Amino Acids Solution [NEAA, Gibco Cat. 11140-050], 50 μg/mL Penicillin-Streptomycin [PS, Invitrogen Cat. 15140-163], 500 μg/mL Geneticin [G418, Invitrogen Cat. 10131-027]) containing 3 μg/mL Tet (Sigma, Cat. 87128) for 5 days. Cells were then seeded at 4×10^6 cells per T150 in the same culture medium as described above in the absence of Tet for 8 days. Cells were then harvested and frozen at density of 2×10^6 cells per ML. For compound testing, the frozen cells were thawed and seeded into 96-well plates at a density of 6×10^4 cells per well. At 24 hours after seeding, half log serial dilutions of compounds made with Dimethyl sulfoxide (DMSO, Sigma, Cat. D2650) were further diluted with the same culture medium as described above before they were added to the cells to reach desired final compound concentrations and 1% DMSO concentration. Plates were then incubated at 37° C. for another 5 days before measurement of HBeAg level and cell viability. Intracellular HBeAg level were measured with enzyme-linked immunosorbent assay (ELISA) kit (Shanghai Kehua Diagnostic Medical Products Co., Ltd). Cell viability was assessed using Cell Counting Kit-8 (DonJindo, Cat. CK04-20). IC50 values were derived from the dose-response curve using 4 parameter logistic curve fit method.\nThe compounds of the present invention were tested for their capacity to inhibit extracellular HBeAg level as described herein.", "units": {"IC50": "nM"}, "values": [
      {"smiles": "COc1cc(Br)c(OCCC(=O)NS(=O)(=O)C2CC2)cc1-c1cc(=O)c2cccc(Cl)c2o1", "note": "[Example 3, 3-[2-Bromo-5-(8-chloro-4-oxo-chromen-2-yl)-4-methoxy-phenoxy]-N-cyclopropylsulfonyl-propanamide]", "IC50": 580},
      {"smiles": "COc1cc(Br)c(OCC(=O)O)cc1-c1cc(=O)c2cccc(Cl)c2o1", "note": "[Example 4, 2-[2-Bromo-5-(8-chloro-4-oxo-chromen-2-yl)-4-methoxy-phenoxy]acetic acid]", "IC50": 1960},
      {"smiles": "COc1cc(Br)c(OCCCOCC(=O)O)cc1-c1cc(=O)c2cccc(Cl)c2o1", "note": "[Example 6, 2-[3-[2-Bromo-5-(8-chloro-4-oxo-chromen-2-yl)-4-methoxy-phenoxy]propoxy]acetic acid]", "IC50": 1660},
      {"smiles": "COc1cc(Cl)c(OC2CC(C(=O)O)C2)cc1-c1cc(=O)c2cccc(Cl)c2o1", "note": "(stereo not drawn) [Example 7, 3-[2-Chloro-5-(8-chloro-4-oxo-chromen-2-yl)-4-methoxy-phenoxy]cyclobutanecarboxylic acid]", "IC50": 4510},
      {"smiles": "COc1cc(C)c(OCCOC2CC(C(=O)O)C2)cc1-c1cc(=O)c2cccc(Cl)c2o1", "note": "(stereo not drawn) [Example 9, 3-[2-[5-(8-Chloro-4-oxo-chromen-2-yl)-4-methoxy-2-methyl-phenoxy]ethoxy]cyclobutanecarboxylic acid]", "IC50": 5200},
      {"smiles": "COc1cc(C)c(OCCC(=O)O)cc1-c1cc(=O)c2cccc(Cl)c2o1", "note": "[Example 10, 3-[5-(8-Chloro-4-oxo-chromen-2-yl)-4-methoxy-2-methyl-phenoxy]propanoic acid]", "IC50": 1540},
      {"smiles": "COc1cc(OC)c(-c2cc(=O)c3cccc(Cl)c3o2)cc1OC1CC(C(=O)O)C1", "note": "(stereo not drawn) [Example 12, 3-[5-(8-Chloro-4-oxo-chromen-2-yl)-2,4-dimethoxy-phenoxy]cyclobutanecarboxylic acid]", "IC50": 620},
      {"smiles": "COc1cc(OC)c(-c2cc(=O)c3cccc(Cl)c3o2)cc1OCCOC1CC(C(=O)O)C1", "note": "(stereo not drawn) [Example 13, 3-[2-[5-(8-Chloro-4-oxo-chromen-2-yl)-2,4-dimethoxy-phenoxy]ethoxy]cyclobutanecarboxylic acid]", "IC50": 190},
      {"smiles": "Cc1ccc(-c2cc(=O)c3cccc(Cl)c3o2)cc1OCC(=O)O", "note": "[Example 14, 2-[5-(8-Chloro-4-oxo-chromen-2-yl)-2-methyl-phenoxy]acetic acid]", "IC50": 6320},
      {"smiles": "Cc1ccc(-c2cc(=O)c3cccc(Cl)c3o2)cc1O[C@H]1C[C@H](C(=O)O)C1", "note": "[Example 16, trans-3-[5-(8-chloro-4-oxo-chromen-2-yl)-2-methyl-phenoxy]cyclobutanecarboxylic acid]", "IC50": 6360},
      {"smiles": "COc1ccc(-c2cc(=O)c3cccc(Cl)c3o2)cc1OC1CC(C(=O)O)C1", "note": "(stereo not drawn) [Example 17, 3-[5-(8-Chloro-4-oxo-chromen-2-yl)-2-methoxy-phenoxy]cyclobutanecarboxylic acid]", "IC50": 720},
      {"smiles": "COc1ccc(-c2cc(=O)c3cccc(Cl)c3o2)cc1OCCOC1CC(C(=O)O)C1", "note": "(stereo not drawn) [Example 18, 3-[2-[5-(8-Chloro-4-oxo-chromen-2-yl)-2-methoxy-phenoxy]ethoxy]cyclobutanecarboxylic acid]", "IC50": 520},
      {"smiles": "COc1ccc(-c2cc(=O)c3cccc(Cl)c3o2)cc1OCCC(=O)O", "note": "[Example 19, 3-[5-(8-Chloro-4-oxo-chromen-2-yl)-2-methoxy-phenoxy]propanoic acid]", "IC50": 7930},
      {"smiles": "O=c1cc(-c2ccc(C(F)(F)F)c(O[C@H]3C[C@@H](C(=O)O)C3)c2)oc2c(Cl)cccc12", "note": "[Example 20, Cis-3-[5-(8-chloro-4-oxo-chromen-2-yl)-2-(trifluoromethyl)phenoxy]cyclobutanecarboxylic acid]", "IC50": 2140},
      {"smiles": "O=c1cc(-c2ccc(C(F)(F)F)c(O[C@H]3C[C@H](C(=O)O)C3)c2)oc2c(Cl)cccc12", "note": "[Example 21, trans-3-[5-(8-chloro-4-oxo-chromen-2-yl)-2-(trifluoromethyl)phenoxy]cyclobutanecarboxylic acid]", "IC50": 4120},
      {"smiles": "COc1cc(-c2cc(=O)c3cccc(Cl)c3o2)cc(O[C@H]2C[C@@H](C(=O)O)C2)c1OC", "note": "[Example 23, Cis-3-[5-(8-chloro-4-oxo-chromen-2-yl)-2,3-dimethoxy-phenoxy]cyclobutanecarboxylic acid]", "IC50": 7360},
      {"smiles": "COc1cc(-c2cc(=O)c3cccc(Cl)c3o2)cc(OCCO[C@H]2C[C@H](C(=O)O)C2)c1OC", "note": "[Example 24, Trans-3-[2-[5-(8-chloro-4-oxo-chromen-2-yl)-2,3-dimethoxy-phenoxy]ethoxy]cyclobutanecarboxylic acid]", "IC50": 1460},
      {"smiles": "COc1cc(-c2cc(=O)c3cccc(Cl)c3o2)cc(OCC(=O)O)c1OC", "note": "[Example 25, 2-[5-(8-Chloro-4-oxo-chromen-2-yl)-2,3-dimethoxy-phenoxy]acetic acid]", "IC50": 7510},
      {"smiles": "COc1cc(Br)c(-c2cc(=O)c3cccc(Cl)c3o2)cc1O[C@H]1C[C@H](C(=O)O)C1", "note": "[Example 26, Trans-3-[4-bromo-5-(8-chloro-4-oxo-chromen-2-yl)-2-methoxy-phenoxy]cyclobutanecarboxylic acid]", "IC50": 1070},
      {"smiles": "COc1cc(Br)c(-c2cc(=O)c3cccc(Cl)c3o2)cc1OCCO[C@H]1C[C@H](C(=O)O)C1", "note": "[Example 27, Trans-3-[2-[4-Bromo-5-(8-chloro-4-oxo-chromen-2-yl)-2-methoxy-phenoxy]ethoxy]cyclobutanecarboxylic acid]", "IC50": 3240},
      {"smiles": "COc1c(OC2CC(C(=O)O)C2)cccc1-c1cc(=O)c2cccc(Cl)c2o1", "note": "(stereo not drawn) [Example 28, 3-[3-(8-Chloro-4-oxo-chromen-2-yl)-2-methoxy-phenoxy]cyclobutanecarboxylic acid]", "IC50": 560},
      {"smiles": "COc1c(OCCO[C@H]2C[C@@H](C(=O)O)C2)cccc1-c1cc(=O)c2cccc(Cl)c2o1", "note": "[Example 29, Cis-3-[2-[3-(8-chloro-4-oxo-chromen-2-yl)-2-methoxy-phenoxy]ethoxy]cyclobutanecarboxylic acid]", "IC50": 3240},
      {"smiles": "COc1ccc(OC2CC(C(=O)O)C2)cc1-c1cc(=O)c2cccc(Cl)c2o1", "note": "(stereo not drawn) [Example 30, 3-[3-(8-Chloro-4-oxo-chromen-2-yl)-4-methoxy-phenoxy]cyclobutanecarboxylic acid]", "IC50": 7510},
      {"smiles": "COc1ccc(OCC(=O)O)cc1-c1cc(=O)c2cccc(Cl)c2o1", "note": "[Example 32, 2-[3-(8-Chloro-4-oxo-chromen-2-yl)-4-methoxy-phenoxy]acetic acid]", "IC50": 7130},
      {"smiles": "COc1ccc(OCCC(=O)O)cc1-c1cc(=O)c2cccc(Cl)c2o1", "note": "[Example 33, 3-[3-(8-Chloro-4-oxo-chromen-2-yl)-4-methoxy-phenoxy]propanoic acid]", "IC50": 6750},
      {"smiles": "COc1c(-c2cc(=O)c3cccc(Cl)c3o2)ccc(Br)c1OCCO[C@H]1C[C@@H](C(=O)O)C1", "note": "[Example 34, Cis-3-[2-[6-bromo-3-(8-chloro-4-oxo-chromen-2-yl)-2-methoxy-phenoxy]ethoxy]cyclobutanecarboxylic acid]", "IC50": 940},
      {"smiles": "COc1c(-c2cc(=O)c3cccc(Cl)c3o2)ccc(Cl)c1OCC(=O)O", "note": "[Example 37, 2-[6-Chloro-3-(8-chloro-4-oxo-chromen-2-yl)-2-methoxy-phenoxy]acetic acid]", "IC50": 10100},
      {"smiles": "COc1ccc(-c2cc(=O)c3cccc(Cl)c3o2)c(OC)c1OCC(=O)O", "note": "[Example 38, 2-[3-(8-Chloro-4-oxo-chromen-2-yl)-2,6-dimethoxy-phenoxy]acetic acid]", "IC50": 1130},
      {"smiles": "CCOc1cc(Br)c(OCCC(=O)O)cc1-c1cc(=O)c2cccc(Cl)c2o1", "note": "[Example 39, 3-[2-Bromo-5-(8-chloro-4-oxo-chromen-2-yl)-4-ethoxy-phenoxy]propanoic acid]", "IC50": 110},
      {"smiles": "O=C(O)CCOc1cc(-c2cc(=O)c3cccc(Cl)c3o2)c(OC(F)F)cc1Br", "note": "[Example 40, 3-[2-Bromo-5-(8-chloro-4-oxo-chromen-2-yl)-4-(difluoromethoxy)phenoxy]propanoic acid]", "IC50": 1390},
      {"smiles": "O=C(O)CCOc1cc(-c2cc(=O)c3cccc(Cl)c3o2)c(F)cc1Br", "note": "[Example 41, 3-[2-Bromo-5-(8-chloro-4-oxo-chromen-2-yl)-4-fluoro-phenoxy]propanoic acid]", "IC50": 133},
      {"smiles": "O=C(O)CCOc1cc(-c2cc(=O)c3cccc(Cl)c3o2)c(OC(F)(F)F)cc1Br", "note": "[Example 42, 3-[2-Bromo-5-(8-chloro-4-oxo-chromen-2-yl)-4-(trifluoromethoxy)phenoxy]propanoic acid]", "IC50": 2630},
      {"smiles": "O=C(O)CCOc1cc(-c2cc(=O)c3cccc(Cl)c3o2)c(Cl)cc1Br", "note": "[Example 43, 3-[2-Bromo-4-chloro-5-(8-chloro-4-oxo-chromen-2-yl)phenoxy]propanoic acid]", "IC50": 11700}
    ]}
  ]
}
